Results from ChEMBL document CHEMBL5523756, “Molecular Transformers: Adaptive Multitarget Ligands for Esterase-Induced Transition from Analgesics to Anesthetics” (J Med Chem, 2024).
pIC50: −log10 of the molar value. The source made the active and inactive calls. The calls are words filed in the database; no cut-off is given here.

What was measured:
[1] = (§1) Toxicity in Sprague-Dawley rat assessed as effect on respiratory frequency at 19 mg/kg administered as continuous infusion followed by maintenance at 3.25 mg/kg/min for 0 to 20 mins, 2.5 mg/kg/min for 20 to 30 mins and 2 mg/kg/min for 30 to 60 mins and measured every 5 mins for 60 mins by whole-body plethysmography; assay type: organism-based; details: in vivo, other, 1 h, route par
[2] = as §1, with “minute ventilation box” for “respiratory frequency”; assay type: organism-based; details: in vivo, other, 1 h, route par
[3] = as §1, with “end inspiratory pause” for “respiratory frequency”; assay type: organism-based; details: in vivo, other, 1 h, route par
[4] = as §1, with “amount of respiration” for “respiratory frequency”; assay type: organism-based; details: in vivo, other, 1 h, route par
[5] = Toxicity in Sprague-Dawley rat assessed as change in P-R interval at 19 mg/kg administered as continuous infusion followed by maintenance at 3.25 mg/kg/min for 0 to 20 mins, 2.5 mg/kg/min for 20 to 30 mins and 2 mg/kg/min for 30 to 60 mins and measured between 30 to 50 mins by electrocardiogram recording; assay type: organism-based; details: in vivo, other, time 30-50 min, route par
[6] = Toxicity in Sprague-Dawley rat assessed as alterations in QRS complex duration at 19 mg/kg administered as continuous infusion followed by maintenance at 3.25 mg/kg/min for 0 to 20 mins, 2.5 mg/kg/min for 20 to 30 mins and 2 mg/kg/min for 30 to 60 mins by electrocardiogram recording; assay type: organism-based; details: in vivo, other, 1 h, route par
Mus musculus [7] = assay: Antiseizure activity in iv dosed ICR mouse model of PTZ-induced acute seizure assessed as reduction in maximum seizure class preadministered for 1 min followed by PTZ treatment and measured for 15 mins by Racine's scale based analysis; assay type: functional, organism-based; details: time 16.0 min
Mus musculus [8] = assay: Antiseizure activity in iv dosed ICR mouse model of PTZ-induced acute seizure assessed as mortality rate preadministered for 1 min followed by PTZ treatment and measured for 7 days (reference value: 83.3%); assay type: functional; details: time 7 day
[9] = Toxicity in ICR mouse assessed as effect on biochemical parameters at 1.5 times ED50, iv administered as single dose; assay type: organism-based; details: in vivo
[10] = Toxicity in Sprague-Dawley rat assessed as effect on LDH level at 19 mg/kg administered as continuous infusion followed by maintenance at 3.25 mg/kg/min for 0 to 20 mins, 2.5 mg/kg/min for 20 to 30 mins and 2 mg/kg/min for 30 to 60 mins; assay type: organism-based; details: in vivo, other, 1 h, route par
[11] = Toxicity in ICR mouse assessed as histopathological changes in liver at 1.5 times ED50, iv administered as single dose and measured after 14 days by H and E staining based analysis; assay type: organism-based; details: in vivo, 336 h, time 14 day
[12] = Toxicity in ICR mouse assessed as histopathological changes in heart at 1.5 times ED50, iv administered as single dose and measured after 14 days by H and E staining based analysis; assay type: organism-based; details: in vivo, 336 h, time 14 day
[13] = Toxicity in ICR mouse assessed as histopathological changes in kidney at 1.5 times ED50, iv administered as single dose and measured after 14 days by H and E staining based analysis; assay type: organism-based; details: in vivo, 336 h, time 14 day
[14] = (§2) Toxicity in Sprague-Dawley rat assessed as histopathological changes in liver at 19 mg/kg administered as continuous infusion followed by maintenance at 3.25 mg/kg/min for 0 to 20 mins, 2.5 mg/kg/min for 20 to 30 mins and 2 mg/kg/min for 30 to 60 mins and measured after 14 days by H and E staining based analysis; assay type: organism-based; details: in vivo, other, 336 h, route par, time 14 day
[15] = as §2, with “kidney” for “liver”; assay type: organism-based; details: in vivo, other, 336 h, route par, time 14 day
Cytochrome P450 2D6 = Cytochrome P450 2D6 (Homo sapiens, UniProt P10635); assay: Inhibition of CYP2D6 (unknown origin) using dextromethorphan as substrate at 10 uM; assay type: ADME
CYP1A2 = target: T1, CYP1A2 (Homo sapiens, UniProt P05177); assay: Inhibition of CYP1A2 (unknown origin) using phenacetin as substrate at 10 uM relative to control; assay type: ADME; details: probe phenacetin
T1 sequence (P05177 whole entry): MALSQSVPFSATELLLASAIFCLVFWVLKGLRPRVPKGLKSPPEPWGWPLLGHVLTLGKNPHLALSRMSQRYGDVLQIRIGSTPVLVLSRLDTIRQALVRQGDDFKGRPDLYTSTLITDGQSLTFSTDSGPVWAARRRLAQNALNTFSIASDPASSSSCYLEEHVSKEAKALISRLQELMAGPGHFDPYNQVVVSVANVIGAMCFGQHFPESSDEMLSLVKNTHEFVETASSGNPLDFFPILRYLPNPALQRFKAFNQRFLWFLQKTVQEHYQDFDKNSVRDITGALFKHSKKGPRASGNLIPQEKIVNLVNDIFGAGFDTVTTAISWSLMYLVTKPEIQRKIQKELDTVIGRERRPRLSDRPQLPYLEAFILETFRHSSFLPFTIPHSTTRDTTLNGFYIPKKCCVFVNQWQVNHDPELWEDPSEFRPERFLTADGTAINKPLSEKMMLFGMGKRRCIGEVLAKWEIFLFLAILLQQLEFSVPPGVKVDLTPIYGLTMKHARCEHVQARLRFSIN

[16] = Stability of compound in 0.1M PBS at 1 mg/ml measured upto 360 mins by HPLC analysis; assay type: physicochemical; details: buffer, 6 h
[17] = Stability in rat plasma assessed as half life at 1 mg/ml measured upto 360 mins by HPLC analysis; assay type: ADME, cell-free
[18] = Drug metabolism in rat liver microsomes assessed as propofol release by measuring half life at 1 mg/ml measured upto 360 mins by LC-MS analysis; assay type: ADME, Microsome; details: 6 h
[19] = Drug metabolism in human liver microsomes assessed as propofol release by measuring half life at 1 mg/ml measured upto 360 mins by LC-MS analysis; assay type: ADME, Microsome; details: 6 h
[20] = target: GABA-A receptor; alpha-1/beta-2/gamma-2 (Homo sapiens) (UniProt P14867+P47870+P18507); assay: Agonist activity at alpha1beta2gamma2 GABA-A receptor (unknown origin) at 10 uM at -70 mV holding potential by electrophysiological recording; assay type: protein-complex assay
[21] = target: T2, Sodium channel protein type 9 subunit alpha (Homo sapiens, UniProt Q15858); assay: Inhibition of Nav1.7 channel (unknown origin) at half inactivation state at -120 mV conditioning pulse by voltage clamp electrophysiological recording
[22] = target: T2, Sodium channel protein type 9 subunit alpha; assay: Inhibition of Nav1.7 channel (unknown origin) at resting state at -120 mV conditioning pulse by voltage clamp electrophysiological recording
[23] = target: Sodium channel protein type 5 subunit alpha (Homo sapiens, UniProt Q14524); assay: Inhibition of Nav1.5 channel (unknown origin) at half inactivation state at -120 mV conditioning pulse by voltage clamp electrophysiological recording; assay type: toxicity
DRG neuron [24] = assay: Modulation of CFA-induced male ICR mouse DRG neuron excitability assessed as reduction in action potential firing frequency at 10 uM by whole cell […] assay; assay type: functional, cell-based
DRG neuron [25] = assay: Modulation of CFA-induced male ICR mouse DRG neuron excitability assessed as reduction in action potential's rheobase at 10 uM by whole cell […] assay; assay type: functional, cell-based

T2 sequence (Q15858 whole entry): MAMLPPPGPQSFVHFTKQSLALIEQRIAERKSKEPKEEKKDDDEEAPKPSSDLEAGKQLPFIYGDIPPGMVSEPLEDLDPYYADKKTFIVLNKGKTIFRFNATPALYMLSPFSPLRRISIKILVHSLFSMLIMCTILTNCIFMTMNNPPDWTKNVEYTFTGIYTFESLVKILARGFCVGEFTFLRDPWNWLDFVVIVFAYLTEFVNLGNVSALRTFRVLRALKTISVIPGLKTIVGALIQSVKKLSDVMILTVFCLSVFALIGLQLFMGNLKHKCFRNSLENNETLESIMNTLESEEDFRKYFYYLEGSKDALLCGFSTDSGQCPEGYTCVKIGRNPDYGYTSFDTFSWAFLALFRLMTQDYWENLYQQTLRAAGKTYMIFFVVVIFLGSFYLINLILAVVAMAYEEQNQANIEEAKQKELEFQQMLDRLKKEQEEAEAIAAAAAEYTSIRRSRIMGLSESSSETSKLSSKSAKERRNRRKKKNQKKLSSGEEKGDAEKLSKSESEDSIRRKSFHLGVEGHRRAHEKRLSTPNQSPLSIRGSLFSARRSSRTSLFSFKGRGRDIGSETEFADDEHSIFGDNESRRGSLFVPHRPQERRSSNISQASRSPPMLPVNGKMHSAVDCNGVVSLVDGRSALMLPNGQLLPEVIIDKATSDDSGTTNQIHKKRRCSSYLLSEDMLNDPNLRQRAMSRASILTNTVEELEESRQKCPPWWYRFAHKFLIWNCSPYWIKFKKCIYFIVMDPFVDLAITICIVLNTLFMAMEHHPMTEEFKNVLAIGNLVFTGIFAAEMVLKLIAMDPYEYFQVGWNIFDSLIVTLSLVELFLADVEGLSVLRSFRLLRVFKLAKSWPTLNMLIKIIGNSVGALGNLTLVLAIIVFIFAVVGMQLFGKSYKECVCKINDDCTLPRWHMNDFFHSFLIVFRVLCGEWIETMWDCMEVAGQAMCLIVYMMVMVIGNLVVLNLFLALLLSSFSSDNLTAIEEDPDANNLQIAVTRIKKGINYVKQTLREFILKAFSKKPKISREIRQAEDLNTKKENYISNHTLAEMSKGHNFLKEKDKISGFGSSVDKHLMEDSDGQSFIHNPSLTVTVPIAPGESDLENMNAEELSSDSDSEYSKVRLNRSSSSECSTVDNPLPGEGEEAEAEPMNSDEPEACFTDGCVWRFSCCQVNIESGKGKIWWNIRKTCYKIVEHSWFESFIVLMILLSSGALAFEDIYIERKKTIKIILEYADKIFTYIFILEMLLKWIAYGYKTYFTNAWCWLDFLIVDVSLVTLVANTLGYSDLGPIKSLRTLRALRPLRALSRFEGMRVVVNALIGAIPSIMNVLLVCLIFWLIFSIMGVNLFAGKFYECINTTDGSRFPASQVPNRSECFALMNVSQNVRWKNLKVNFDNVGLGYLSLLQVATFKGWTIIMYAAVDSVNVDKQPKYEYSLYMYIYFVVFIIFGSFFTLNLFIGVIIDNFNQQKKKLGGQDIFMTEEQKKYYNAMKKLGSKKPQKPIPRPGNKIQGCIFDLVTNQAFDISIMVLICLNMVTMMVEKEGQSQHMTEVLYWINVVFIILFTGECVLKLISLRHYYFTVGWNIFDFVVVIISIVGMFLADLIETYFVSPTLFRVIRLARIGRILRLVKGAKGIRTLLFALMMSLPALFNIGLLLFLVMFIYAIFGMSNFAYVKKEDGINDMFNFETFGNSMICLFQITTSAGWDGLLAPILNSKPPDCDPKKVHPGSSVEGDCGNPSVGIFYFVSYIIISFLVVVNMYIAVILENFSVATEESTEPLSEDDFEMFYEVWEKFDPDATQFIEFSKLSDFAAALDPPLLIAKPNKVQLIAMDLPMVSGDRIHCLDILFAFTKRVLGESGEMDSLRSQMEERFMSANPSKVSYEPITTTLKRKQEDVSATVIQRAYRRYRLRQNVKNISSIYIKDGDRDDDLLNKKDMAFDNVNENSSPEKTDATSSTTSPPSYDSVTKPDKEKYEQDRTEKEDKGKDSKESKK
Cytochrome P450 2D6, sequence (P10635 whole entry): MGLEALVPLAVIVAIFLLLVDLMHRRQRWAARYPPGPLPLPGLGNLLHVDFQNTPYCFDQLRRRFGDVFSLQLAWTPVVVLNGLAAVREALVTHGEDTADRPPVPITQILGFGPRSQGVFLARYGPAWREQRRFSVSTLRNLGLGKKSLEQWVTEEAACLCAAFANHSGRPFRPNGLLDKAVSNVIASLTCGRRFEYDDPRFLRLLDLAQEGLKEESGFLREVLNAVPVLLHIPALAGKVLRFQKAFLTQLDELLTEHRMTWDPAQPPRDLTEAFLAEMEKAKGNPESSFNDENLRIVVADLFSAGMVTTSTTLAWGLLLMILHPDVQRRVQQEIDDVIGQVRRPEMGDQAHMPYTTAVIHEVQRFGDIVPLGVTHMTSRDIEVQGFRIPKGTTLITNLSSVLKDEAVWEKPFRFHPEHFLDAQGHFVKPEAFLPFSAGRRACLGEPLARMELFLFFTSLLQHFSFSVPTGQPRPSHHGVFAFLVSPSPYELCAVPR
Sodium channel protein type 5 subunit alpha, sequence (Q14524 whole entry): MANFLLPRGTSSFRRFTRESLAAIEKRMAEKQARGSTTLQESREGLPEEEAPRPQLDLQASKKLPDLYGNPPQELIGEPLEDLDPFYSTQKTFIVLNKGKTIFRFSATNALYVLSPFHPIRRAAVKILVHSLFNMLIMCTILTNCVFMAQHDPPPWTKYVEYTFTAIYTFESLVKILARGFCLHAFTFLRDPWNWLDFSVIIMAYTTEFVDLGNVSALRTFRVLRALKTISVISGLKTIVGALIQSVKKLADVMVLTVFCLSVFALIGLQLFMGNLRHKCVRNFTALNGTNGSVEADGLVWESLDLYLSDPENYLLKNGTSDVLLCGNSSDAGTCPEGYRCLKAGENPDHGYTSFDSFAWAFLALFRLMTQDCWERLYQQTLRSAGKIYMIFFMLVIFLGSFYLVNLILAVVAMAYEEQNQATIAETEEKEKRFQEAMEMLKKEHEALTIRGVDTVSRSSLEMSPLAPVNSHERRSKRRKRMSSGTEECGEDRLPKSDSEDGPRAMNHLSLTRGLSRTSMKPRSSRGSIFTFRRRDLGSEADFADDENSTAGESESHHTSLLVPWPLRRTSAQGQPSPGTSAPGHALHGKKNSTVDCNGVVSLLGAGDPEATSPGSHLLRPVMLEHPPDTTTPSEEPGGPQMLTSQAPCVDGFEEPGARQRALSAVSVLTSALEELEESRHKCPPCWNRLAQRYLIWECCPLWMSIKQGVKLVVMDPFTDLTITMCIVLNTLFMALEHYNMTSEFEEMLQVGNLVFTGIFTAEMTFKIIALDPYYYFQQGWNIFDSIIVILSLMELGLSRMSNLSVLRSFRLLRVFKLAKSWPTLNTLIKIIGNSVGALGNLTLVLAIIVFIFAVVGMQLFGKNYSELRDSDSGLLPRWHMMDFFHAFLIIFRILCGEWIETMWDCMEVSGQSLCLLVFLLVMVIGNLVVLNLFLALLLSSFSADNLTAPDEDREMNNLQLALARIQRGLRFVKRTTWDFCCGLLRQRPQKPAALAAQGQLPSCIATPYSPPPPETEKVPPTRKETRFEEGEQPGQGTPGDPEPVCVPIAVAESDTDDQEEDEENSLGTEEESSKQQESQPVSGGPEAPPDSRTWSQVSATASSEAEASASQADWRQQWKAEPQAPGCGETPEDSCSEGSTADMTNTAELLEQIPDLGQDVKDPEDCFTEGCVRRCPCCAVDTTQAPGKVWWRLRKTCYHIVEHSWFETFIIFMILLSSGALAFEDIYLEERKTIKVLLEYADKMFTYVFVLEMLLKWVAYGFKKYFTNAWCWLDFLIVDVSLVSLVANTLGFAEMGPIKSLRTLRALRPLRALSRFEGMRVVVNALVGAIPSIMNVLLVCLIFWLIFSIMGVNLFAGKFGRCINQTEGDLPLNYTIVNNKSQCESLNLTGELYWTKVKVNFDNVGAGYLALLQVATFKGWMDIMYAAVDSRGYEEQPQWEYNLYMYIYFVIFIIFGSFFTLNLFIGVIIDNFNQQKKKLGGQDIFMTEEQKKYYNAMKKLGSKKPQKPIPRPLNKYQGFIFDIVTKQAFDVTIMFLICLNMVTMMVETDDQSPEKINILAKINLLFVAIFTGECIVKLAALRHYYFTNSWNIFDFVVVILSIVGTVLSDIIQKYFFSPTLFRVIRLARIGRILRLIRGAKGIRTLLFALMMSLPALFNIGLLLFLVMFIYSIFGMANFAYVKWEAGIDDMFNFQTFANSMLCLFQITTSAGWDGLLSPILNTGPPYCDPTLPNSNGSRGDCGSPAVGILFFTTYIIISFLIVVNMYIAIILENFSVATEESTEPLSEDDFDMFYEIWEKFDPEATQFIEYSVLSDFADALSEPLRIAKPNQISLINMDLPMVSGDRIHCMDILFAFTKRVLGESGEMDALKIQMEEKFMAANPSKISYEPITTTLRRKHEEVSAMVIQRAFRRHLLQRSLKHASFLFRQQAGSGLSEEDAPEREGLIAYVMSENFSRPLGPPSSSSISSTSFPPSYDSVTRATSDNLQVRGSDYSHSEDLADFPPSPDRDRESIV

Structure (SMILES): CCN(CC)CCOC(=O)Oc1c(C(C)C)cccc1C(C)C.Cl
- Activity [1]: Non-Toxic
- Activity [2]: Non-Toxic
- Activity [3]: Non-Toxic
- Activity [4]: Non-Toxic
- Activity [5]: Toxic
- Activity [6]: Non-Toxic
- Activity (Mus musculus [7]): Active
- Activity (Mus musculus [8]): 0%
- Activity [9]: Non-Toxic
- Activity [10]: Non-Toxic
- Activity [11]: Non-Toxic
- Activity [12]: Non-Toxic
- Activity [13]: Non-Toxic
- Activity [14]: Non-Toxic
- Activity [15]: Non-Toxic
- inhibition (INH) (Cytochrome P450 2D6): Not Active
- inhibition at 10 µM (CYP1A2): 26.2%
- Stability [16]: Stable
- half-life at 1 mg/ml [17]: 1.7 min
- t1/2 [18]: 81.09 min
- t1/2 [19]: 54.63 min
- Activity [20]: inactive
- pIC50 [21]: 5.13
- pIC50 [22]: < 4.52
- pIC50 [23]: 4.69
- Activity (DRG neuron [24]): Active
- Activity (DRG neuron [25]): inactive
